Entries after “also recorded” stand apart in the source; their conditions may differ.
Assays:
[1] = system: Ge-con and Ge-Hsp70 melanoma cells; experiment: 51Chromium release assay: lysis of SAHA-treated Ge-con and Ge-Hsp70 cells by LAK cells; format: cell-based, human; conditions: target cells 10 μM SAHA 20 h; LAK: PBMC 4 days IL-2 100 U/ml; n=4; p=0.0030, three-way ANOVA; FIG. 9B
Description: (§1) The human melanoma cell line Ge, the Ge-Hsp70 and Ge-con sublines derived therefrom (clones Ge-Hsp70-A, Ge-Hsp70-C, Ge-TCR-C, and Ge-GFP-B) (15), mouse fibroblast L cells, and transfected L cells were maintained in NaHCO3-buffered DMEM supplemented with 10% FCS (Biochrom, Berlin, Germany), 2 mM L-glutamine, 1 mM sodium pyruvate, 50 μM 2-mercaptoethanol and antibiotics (100 U/ml penicillin, 100 μg/ml streptomycin) (Sigma) in Petri dishes for tissue culture (Sarstedt, Nümbrecht, Germany) at 37° C. in a 10% CO2 atmosphere. Human erythroleukemia K562 and mouse lymphoma YAC-1 cells were maintained under the same conditions in Petri dishes for suspension cells (Sarstedt). […] MICA mRNA expression was analyzed by Northern blot and cell surface expression by flow cytometry. […]
(§2) Target cells were labeled by incubating 1×10^6 cells in 200 μl HEPES-buffered DMEM containing 100 μl FCS and 50 μCi Na2^51CrO4 (ICN Biomedicals, Eschwege, Germany) for 1 h at 37° C. and washed three times with HEPES-buffered DMEM. […] Spontaneous release was determined by incubation of target cells in the absence of effector cells. […]

[2] = system: Ge-con and Ge-Hsp70 melanoma cells; experiment: Flow cytometry of cell surface MICA/B, NKG2D ligands and HSP70 on Ge melanoma cells after histone deacetylase inhibitor; format: cell-based, human; conditions: FIG. 9A; for HSP70 cell surface expression on Ge cells after histone deacetylase inhibitor treatment: SAHA 10 μM, 20 h, mAb RPN 1197; for MICA/B cell surface expression on Ge-con and Ge-Hsp70 cells: histone deacetylase inhibitor treatment (SAHA 10 μM, 20 h)
Description: (§3) The human melanoma cell line Ge, the Ge-Hsp70 and Ge-con sublines derived therefrom (clones Ge-Hsp70-A, Ge-Hsp70-C, Ge-TCR-C, and Ge-GFP-B) (15), mouse fibroblast L cells, and transfected L cells were maintained in NaHCO3-buffered DMEM supplemented with 10% FCS (Biochrom, Berlin, Germany), 2 mM L-glutamine, 1 mM sodium pyruvate, 50 μM 2-mercaptoethanol and antibiotics (100 U/ml penicillin, 100 μg/ml streptomycin) (Sigma) in Petri dishes for tissue culture (Sarstedt, Nümbrecht, Germany) at 37° C. in a 10% CO2 atmosphere. Human erythroleukemia K562 and mouse lymphoma YAC-1 cells were maintained under the same conditions in Petri dishes for suspension cells (Sarstedt). […] L cells were co-transfected by electroporation with 30 μg of the cosmid A158 (25) containing the MIC3 gene of the rhesus macaque (Macaca mulatta) which is orthologous to human MICA, and with 1 μg of the dsRED vector (Clontech, Mountain View, USA), which confers resistance to geneticin (Invitrogen, Karlsruhe, Germany). After selection with geniticin (1 mg/ml) stable clones were established by limiting dilution, tested for presence of the cosmid by PCR using specific primers (5′-GCT TGC ATT CCC TCC AGG A-3′ (SEQ ID NO: 1) and 5′-TGGACCCTCTGCAGCTGATGT-3′ (SEQ ID NO: 2), length of specific PCR product 1396 bp). MICA mRNA expression was analyzed by Northern blot and cell surface expression by flow cytometry. Four independent clones were tested as target cells for human and rhesus lymphokine-activated killer (LAK) cells with similar results, confirming that MICA expression confers susceptibility to LAK cells. Clone K43 (L-MICA) was selected for the further studies.
Flow cytometry was done on a FACScan flow cytometer (Becton Dickinson, Heidelberg, Germany) using CellQuest software. Expression of intracellular HSP70, T cell receptor (TCR) β, and green fluorescent protein (GFP) in Ge-Hsp70 and Ge-con clones, respectively, was controlled regularly by flow cytometry as described before (15). Cell surface expression of HSP70 was examined on propidium iodide negative cells by a monoclonal antibody (mAb) (RPN 1197, mouse IgG1, multimmune, Regensburg, Germany) that has been reported to detect HSP70 on the plasma membrane (28). MICA/B cell surface expression was determined with the mAb BAMO1 reacting with human MICA and MICB (mouse IgG1, Immatics, Tübingen, Germany). […] Intracellular granzyme B expression was analyzed with the mAb B18.1 (mouse IgG1, Alexis Biochemicals, Grünberg, Germany) after permeabilization of the cells with 0.25% saponin as described before for HSP70 (15). […] The percentage of NK cells in the spleens of SCID mice was determined using the pan-NK cell marker DX5 (rat IgM, PE-conjugated, Caltag Laboratories, Hamburg, Germany). […]

[3] = system: NK cells / Ge-con target cells; experiment: 51Chromium release assay: lysis of Ge-con melanoma target cells by isolated NK cells; format: cell-based, human
Description: Human effector cells were obtained from the peripheral blood of healthy voluntary laboratory co-workers by density gradient centrifugation on Biocoll separating solution (Biochrom). NK cells were isolated from peripheral blood mononuclear cells (PBMC) by magnetic cell sorting (MACS) using a negative selection kit (NK cell isolation Kit II, 130-091-152; Miltenyi Biotec, Bergisch-Gladbach, Germany). The kit contains a cocktail of antibodies against CD3, CD4, CD14, CD15, CD19, CD36, CD123, and CD235a. […] NK cells enriched by MACS were cultured in 24-well plates for tissue culture (Sarstedt) at a density of 2×10^6 cells/ml. To some cultures 2 μg/ml recombinant HSP70, recombinant HSC70, or the HSP70-derived peptide TKD (Bachem, Bubendorf, Switzerland) were added.
Target cells were labeled by incubating 1×10^6 cells in 200 μl HEPES-buffered DMEM containing 100 μl FCS and 50 μCi Na2^51CrO4 (ICN Biomedicals, Eschwege, Germany) for 1 h at 37° C. and washed three times with HEPES-buffered DMEM. […] Spontaneous release was determined by incubation of target cells in the absence of effector cells. The micro titer plates were centrifuged for 5 min at 40×g and incubated at 37° C. for 4 h before being centrifuged again and supernatant and sediment were separately taken to determine radioactivity in each well using a Wallac MicroBeta Trilux counter (PerkinElmer Life Sciences, Köln, Germany).

PBMC = experiment: 51Chromium release assay: lysis of L-MICA / L / K562 target cells by human PBMC or LAK cells stimulated in vitro; format: cell-based; conditions: for lysis of L-MICA cells by IL-2 treated PBMC, additional stimulatory effect of recombinant protein: PBMC cultured 7 days with IL-2 (100 U/ml) plus 2 μg/ml protein, compared with IL-2 only, FIG. 7A
Description: as §3
(§4) Splenocytes from SCID mice were obtained using a Tenbroeck homogeniser and erythrocytes were removed by incubation for 5 min in lysis buffer (155 mM NH4Cl, 10 mM KHCO3, 0.1 mM EDTA, pH 7.4-7.8). Afterwards the cells were used either directly as cytotoxic effector cells or cultured for 24 h in DMEM with 10% FCS and 20% supematant from concanavalin A stimulated lymphocytes before being used in ^51Chromium release assays. Human effector cells were obtained from the peripheral blood of healthy voluntary laboratory co-workers by density gradient centrifugation on Biocoll separating solution (Biochrom). NK cells were isolated from peripheral blood mononuclear cells (PBMC) by magnetic cell sorting (MACS) using a negative selection kit (NK cell isolation Kit II, 130-091-152; Miltenyi Biotec, Bergisch-Gladbach, Germany). […]
as §2

NK cells [4] = conditions: shown before (27); cited from earlier work
NK cells [5] = experiment: 51Chromium release assay: lysis of L-MICA target cells by MACS-isolated NK cells or NK cell depleted PBMC; format: cell-based, human
Description: as §1, §2

NK cells [6] = experiment: Flow cytometry of NK cell markers and intracellular granzyme B after 5 d culture; format: cell-based, human; conditions: IL-2 100 U/ml, TKD 2 μg/ml
Description: as §4, with “Germany). The kit contains a cocktail of antibodies against CD3, CD4, CD14, CD15, CD19, CD36, CD123, and CD235a. To obtain LAK cells the PBMC were cultured for 4 to 7 days in 5-ml Petri dishes for tissue culture (Sarstedt) at a density of 5 to 10×10^6 cells/ml in DMEM supplemented with 100 U/ml IL-2 (Proleukin, Chiron, Amsterdam, Netherlands). NK cells enriched by MACS were cultured in 24-well plates for tissue culture (Sarstedt) at a density of 2×10^6 cells/ml. To some cultures 2 μg/ml recombinant HSP70, recombinant HSC70, or the HSP70-derived peptide TKD (Bachem, Bubendorf, Switzerland) were added.” for “Germany).”
Flow cytometry was done on a FACScan flow cytometer (Becton Dickinson, Heidelberg, Germany) using CellQuest software. […] MICA/B cell surface expression was determined with the mAb BAMO1 reacting with human MICA and MICB (mouse IgG1, Immatics, Tübingen, Germany). […] Intracellular granzyme B expression was analyzed with the mAb B18.1 (mouse IgG1, Alexis Biochemicals, Grünberg, Germany) after permeabilization of the cells with 0.25% saponin as described before for HSP70 (15). […] The percentage of NK cells in the spleens of SCID mice was determined using the pan-NK cell marker DX5 (rat IgM, PE-conjugated, Caltag Laboratories, Hamburg, Germany). […]

O=C(CCCCCCC(=O)Nc1ccccc1)NO [SAHA, suberoylanilide hydroxyamic acid]
susceptibility of treated Ge-con and Ge-Hsp70 cells to lysis by LAK cells versus untreated cells [1]: significantly more susceptible to lysis by LAK cells than untreated cells; also recorded: lysed signifcantly better than untreated cells | HSP70 cell surface expression on Ge cells after histone deacetylase inhibitor treatment [2]: not found | MICA/B cell surface expression on Ge-con and Ge-Hsp70 cells [2]: induced | susceptibility of Ge target cells to NK cells after SAHA treatment ([3]; target cells 10 μM SAHA 20 h, p<0.0001, three-way ANOVA, effector:target 2.5:1 and 1.25:1): augmented their susceptibility to NK cells

CC(/C=C/C(=O)NO)=C\[C@@H](C)C(=O)c1ccc(N(C)C)cc1 [trichostatin A]
HSP70 cell surface expression on Ge cells after histone deacetylase inhibitor treatment [2]: not found | MICA/B cell surface expression on Ge-con and Ge-Hsp70 cells [2]: induced

HSC70: His-tagged recombinant constitutively expressed HSC70 from the rat Hsc70 gene, produced in E. coli
lysis of L-MICA cells by IL-2 treated PBMC, additional stimulatory effect of recombinant protein (PBMC): but not HSC70 was able to further activate PBMC to kill MICA expressing target cells

HSP70: His-tagged recombinant stress-inducible HSP70 protein derived from the rat Hsp70-1 gene, produced in E. coli
capacity of LAK cells to kill L-MICA cells (PBMC; 7 days IL-2 (100 U/ml) plus HSP70 (2 μg/ml), tested in parallel with LPS (10 ng/ml), 6 experiments, p=0.0374, FIG. 7B): significantly increased | lysis of L-MICA cells by IL-2 treated PBMC, additional stimulatory effect of recombinant protein (PBMC): further increased lysis of the L-MICA cells

TKDNNLLGRFELSG
ability to stimulate NK cells to lyse HSP70 cell surface positive target cells (NK cells [4]): equivalent to the full length HSP70 | killing of L-MICA cells by stimulated NK cell depleted PBMC (NK cells [5]; NK cell depleted PBMC, 5 days IL-2 (100 U/ml) or IL-2 plus TKD (2 μg/ml), effector:target ratios up to 200:1, FIG. 8B): did not result in a cell population that was able to kill L-MICA cells | activity of the NK cells against L-MICA cells (NK cells [5]; NK cell enriched fraction, 5 days IL-2 (100 U/ml) plus TKD (2 μg/ml) versus IL-2, 7 experiments, p<0.0001, FIG. 8C): significantly improve | capability of NK cells to lyse Ge-con target cells after stimulation ([3]; NK cells 5 days IL-2 (100 U/ml) plus TKD (2 μg/ml) versus IL-2, TKD p=0.0055, three-way ANOVA, effector:target 2.5:1 and 1.25:1): increased their capability to lyse target cells | killing of Ge-con target cells: combination of TKD treatment of NK cells and SAHA treatment of target cells ([3]; TKD 2 μg/ml plus IL-2 5 days, SAHA 10 μM 20 h, interaction p=0.0003, especially at lower effector:target ratios, FIG. 10B): acted synergistically | lysis of L-MICA cells by PBMC stimulated with IL-2 and TKD versus IL-2 only (PBMC; 7 days, IL-2 100 U/ml, TKD 2 μg/ml, p=0.0012, FIG. 7C): lysed L-MICA cells significantly better | mean fluorescence intensity of NKG2D and CD94, IL-2 and TKD versus IL-2 alone (NK cells [6]): no significant difference was detectable | intracellular granzyme B expression, IL-2 plus TKD versus IL-2 alone (NK cells [6]; 5 experiments, FIG. 10D): tendency towards increased expression | percentage of CD56 positive NK cells, IL-2 plus TKD versus IL-2 (NK cells [6]; FIG. 10C): no difference was observed
